{
  "source": "patent US20260327250A1",
  "about": "“3-ETHYLAMINO-INDOLE DIMERS AS SEROTONERGIC AGENTS USEFUL FOR THE TREATMENT OF DISORDERS RELATED THERETO” (MINDSET PHARMA INC., priority 2022, published 2026)",
  "key": {"human 5-HT2A receptor": {"target": "human 5-HT2A receptor (Homo sapiens, UniProt P28223)", "sequence (P28223 whole entry)": "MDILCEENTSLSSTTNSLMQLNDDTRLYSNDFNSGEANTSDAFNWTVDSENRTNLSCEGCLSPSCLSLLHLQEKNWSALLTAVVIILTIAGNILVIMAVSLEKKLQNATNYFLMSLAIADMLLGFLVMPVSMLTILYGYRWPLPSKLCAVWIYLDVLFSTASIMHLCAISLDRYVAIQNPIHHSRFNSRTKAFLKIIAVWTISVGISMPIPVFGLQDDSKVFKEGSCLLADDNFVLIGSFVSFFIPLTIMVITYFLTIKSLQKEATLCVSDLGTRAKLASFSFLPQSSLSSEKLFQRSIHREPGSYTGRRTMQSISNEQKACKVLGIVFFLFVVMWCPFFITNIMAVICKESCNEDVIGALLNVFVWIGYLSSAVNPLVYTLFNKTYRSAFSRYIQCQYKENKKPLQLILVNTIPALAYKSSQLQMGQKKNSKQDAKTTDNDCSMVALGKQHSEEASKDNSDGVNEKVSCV", "assay": "Human 5-HT2A radioligand binding assay ([3H]-ketanserin)", "protocol": "The objective of this study was to evaluate the binding properties of exemplary compounds of Formula I on 5-hydroxytryptamine receptor 2A (5-HT2A).\n(§1) • 1. The assay buffer was prepared following the table below.\nUniFilter-96 GF/B plate was pretreated: • i. 50 μl/well of 0.5% (v/v) PEI was added to UniFilter-96 GF/C plates. The plates were sealed and incubated at 4° C. for 3 hrs. • ii. After incubation, the plates were washed 3 times with ice-cold wash buffer (50 mM Tris, pH7.4). • 4. […] Cell membrane was diluted with assay buffer and 330 μl/well was added to 96 round deep well plates to reach a concentration of 20 μg/well. • ii. 8 concentrations of reference or test compounds were prepared and 110 μl/well was added to 96 round deep well plates. • iii. […] The plate was centrifuged at 1000 rpm for 30 secs and then agitated at 600 rpm, R.T. for 5 min. • 6. […] The filter plates were sealed and 40 μl/well of scintillation cocktail was added. • 10. The plate was read by using a Microbeta^2 microplate counter.\n• 1. […] The IC50 was determined by fitting percentage of inhibition as a function of compound concentrations with Hill equation using XLfit."}, "in vitro [1]": {"assay": "in vitro", "conditions": "rat, microsomes", "description": "(§2) The concentrations of parent compounds in reaction systems were evaluated by LC-MS/MS for estimating the stability in pooled human, male rat and male mouse liver microsomes. The in vitro intrinsic clearances of test compounds were determined as well. Protocol\n(§3) A master solution in the “Incubation Plate” containing phosphate buffer, ultra-pure H2O, MgCl2 solution and liver microsomes was made according to Table 6. The mixture was pre-warmed at 37° C. water bath for 5 minutes.\n(§4) The reaction was started with the addition of 4 μL of 200 μM exemplary test compounds of the application or control compounds to each master solution to get the final concentration of 2 μM. This study was performed in duplicate.\n(§5) Aliquots of 50 μL were taken from the reaction solution at 0, 15, 30, 45 and 60 minutes. The reaction solutions were stopped by the addition of 4 volumes of cold methanol with IS (100 nM alprazolam, 200 nM imipramine, 200 nM labetalol and 2 μM ketoprofen). Samples were centrifuged at 3,220 g for 40 minutes. Aliquot of 90 μL of the supernatant was mixed with 90 μL of ultra-pure H2O and then was used for LC-MS/MS analysis.\n(§6) All calculations were carried out using Microsoft Excel. Peak area ratios of test compound to internal standard (listed in the below table) were determined from extracted ion chromatograms.\n(§7) All calculations were carried out using Microsoft Excel. Peak areas were determined from extracted ion chromatograms. The slope value, k, was determined by linear regression of the natural logarithm of the remaining percentage of the parent drug vs. incubation time curve.\n(§8) The in vitro half-life (in vitro t½) was determined from the slope value:\n(§9) Conversion of the in vitro t½ (min) into the in vitro intrinsic clearance (in vitro CLint, in μL/min/mg proteins) was done using the following equation (mean of duplicate determinations):"}, "in vitro [2]": {"assay": "in vitro", "conditions": "mouse, microsomes", "description": "as §2, §3, §4, §5, §6, §7, §8, §9"}, "in vitro [3]": {"assay": "in vitro", "conditions": "human, microsomes", "description": "as §2, §3, §4, §5, §6, §7, §8, §9"}, "human 5-HT1A receptor": {"target": "T1, human 5-HT1A receptor (Homo sapiens, UniProt P08908)", "T1 sequence (P08908 1-422)": "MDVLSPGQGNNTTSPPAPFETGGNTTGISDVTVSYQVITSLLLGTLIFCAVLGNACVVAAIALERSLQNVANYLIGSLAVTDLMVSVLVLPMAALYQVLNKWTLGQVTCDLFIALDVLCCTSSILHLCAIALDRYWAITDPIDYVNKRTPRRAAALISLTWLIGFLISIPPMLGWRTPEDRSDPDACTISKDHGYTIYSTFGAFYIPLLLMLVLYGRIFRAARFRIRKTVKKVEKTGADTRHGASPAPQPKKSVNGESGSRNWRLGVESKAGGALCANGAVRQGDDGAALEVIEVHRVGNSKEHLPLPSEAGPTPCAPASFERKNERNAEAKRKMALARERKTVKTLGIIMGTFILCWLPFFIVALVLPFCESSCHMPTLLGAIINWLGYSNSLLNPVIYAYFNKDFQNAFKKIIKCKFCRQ", "assay": "Human 5-HT1A radioligand binding assay ([3H]-8-Hydroxy-DPAT)", "protocol": "The objective of this study was to evaluate the binding properties of test compounds on 5-hydroxytryptamine receptor 1A.\nas §1\npH was adjusted to 7.4 followed by […] sterile filtration • 1. 8 doses of reference and test compounds were prepared starting from 10 mM stock solution as required by 5-fold serial dilutions with 100% (v/v) DMSO. • 2. UniFilter-96 GF/B Plate was Pretreated: • i. 50 μl/well of 0.5% (v/v) PEI was added to UniFilter-96 GF/B plates. The plates were sealed and incubated at 4° C. for 3 hrs. • ii. After incubation, the plates were washed 3 times with ice-cold wash buffer (50 mM Tris, pH7.4).\n• i. Cell membrane was diluted with assay buffer and 100 μl/well was added to 96 round well plates to reach a concentration of 20 μg/well. • ii. 8 concentrations of reference or test compounds were prepared and 50 μl/well was added to 96 round deep well plates. • iii. [3H]-8-Hydroxy-DPAT was diluted with assay buffer to 2 nM (4× final concentration) and 50 μl/well was added to 96 round well plates. • 4. The plate was centrifuged at 1000 rpm for 30 secs and then agitated at 600 rpm, R.T. for 5 min. • 5. The plates were sealed and the plate was incubated at 27° C. for 90 min. • 6. The incubation was stopped by vacuum filtration onto GF/B filter plates followed by 4 times washing with ice-cold wash buffer (50 mM Tris, pH7.4). • 7. The plates were dried at 37° C. for 45 min. • 8. The filter plates were sealed and 40 μl/well of scintillation cocktail was added. • 9. The plate was read by using a Microbeta^2 microplate counter.\n• 1. For reference and test compounds, the results were expressed as % Inhibition, using the normalization equation: N=100-100×(U−C2)/(C1−C2), where U is the unknown value, C1 is the average of high controls, and C2 is the average of low controls. • 2. The IC50 was determined by fitting percentage of inhibition as a […] of compound concentrations with Hill equation using XLfit. Results and Discussion"}, "[4]": {"conditions": "[3H]-ketanserin, 27° C., 90 min, read-out: h5-HT2A, IC50"}, "[5]": {"conditions": "Remaining Percentage after 60 min, human liver microsomes, with cofactors"}, "[6]": {"conditions": "[3H]-8-Hydroxy-DPAT, 27° C., 90 min, read-out: h5-HT1A, IC50"}},
  "note": "Counter-ions that a name gives are not always drawn. Like-named read-outs stand apart in the source and are kept apart here.",
  "data": [
    {"smiles": "CN(C)CCc1c[nH]c2cccc(OC(=O)CCCC(=O)Oc3cccc4[nH]cc(CCN(C)C)c34)c12", "note": "[Compound I-24, Bis(3-(2-(dimethylamino)ethyl)-1H-indol-4-yl) glutarate]", "values": [
      {"measurement": "IC50", "setting": "human 5-HT2A receptor; [4]", "result": 0.127, "unit": "µM"},
      {"measurement": "half-life at 2 µM", "setting": "in vitro [1]", "result": "< 4.51", "unit": "min"},
      {"measurement": "microsomal CLint at 2 µM", "setting": "in vitro [1]", "result": "> 307", "unit": "µL/min/mg"},
      {"measurement": "remaining at 1 h, 2 µM", "setting": "in vitro [1]", "result": 0, "unit": "%"},
      {"measurement": "half-life at 2 µM", "setting": "in vitro [2]", "result": "< 4.51", "unit": "min"},
      {"measurement": "microsomal CLint at 2 µM", "setting": "in vitro [2]", "result": "> 307", "unit": "µL/min/mg"},
      {"measurement": "remaining at 1 h, 2 µM", "setting": "in vitro [2]", "result": 0, "unit": "%"},
      {"measurement": "half-life at 2 µM", "setting": "in vitro [3]", "result": 4.94, "unit": "min"},
      {"measurement": "microsomal CLint at 2 µM", "setting": "in vitro [3]", "result": 281, "unit": "µL/min/mg"},
      {"measurement": "remaining at 1 h, 2 µM", "setting": "in vitro [3]; [5]", "result": 0, "unit": "%"},
      {"measurement": "remaining at 1 h, 2 µM", "setting": "in vitro [3]; Remaining Percentage after 60 min, human liver microsomes, without cofactors", "result": 1.08, "unit": "%"},
      {"measurement": "IC50", "setting": "human 5-HT1A receptor; [6]", "result": 0.336, "unit": "µM"}
    ]},
    {"smiles": "CN(C)CCc1c[nH]c2cccc(O)c12", "note": "[Psilocin, 4-hydroxy-N,N-dimethyltryptamine, reference compound]", "values": [
      {"measurement": "remaining at 1 h, 2 µM", "setting": "in vitro [1]", "result": 62.7, "unit": "%"},
      {"measurement": "remaining at 1 h, 2 µM", "setting": "in vitro [2]", "result": 96.9, "unit": "%"},
      {"measurement": "remaining at 1 h, 2 µM", "setting": "in vitro [3]; [5]", "result": 70.2, "unit": "%"}
    ]},
    {"smiles": "CN(C)CCc1c[nH]c2cccc(OP(=O)(O)O)c12", "note": "[Psilocybin]", "values": [
      {"measurement": "IC50", "setting": "human 5-HT1A receptor; [6]", "result": 4.79, "unit": "µM"}
    ]},
    {"smiles": "CC(C)N(CCc1c[nH]c2cccc(OC(=O)CCCC(=O)Oc3cccc4[nH]cc(CCN(C(C)C)C(C)C)c34)c12)C(C)C", "note": "[Compound I-37, Bis(3-(2-(diisopropylamino)ethyl)-1H-indol-4-yl) glutarate dihydrochloride]", "values": [
      {"measurement": "IC50", "setting": "human 5-HT2A receptor", "result": 0.547, "unit": "µM"},
      {"measurement": "half-life at 2 µM", "setting": "in vitro [1]", "result": "< 4.51", "unit": "min"},
      {"measurement": "microsomal CLint at 2 µM", "setting": "in vitro [1]", "result": "> 307", "unit": "µL/min/mg"},
      {"measurement": "remaining at 1 h, 2 µM", "setting": "in vitro [1]", "result": 0, "unit": "%"},
      {"measurement": "half-life at 2 µM", "setting": "in vitro [2]", "result": "< 4.51", "unit": "min"},
      {"measurement": "microsomal CLint at 2 µM", "setting": "in vitro [2]", "result": "> 307", "unit": "µL/min/mg"},
      {"measurement": "remaining at 1 h, 2 µM", "setting": "in vitro [2]", "result": 0, "unit": "%"},
      {"measurement": "half-life at 2 µM", "setting": "in vitro [3]", "result": "< 4.51", "unit": "min"},
      {"measurement": "microsomal CLint at 2 µM", "setting": "in vitro [3]", "result": "> 307", "unit": "µL/min/mg"},
      {"measurement": "remaining at 1 h, 2 µM", "setting": "in vitro [3]", "result": 0, "unit": "%"},
      {"measurement": "IC50", "setting": "human 5-HT1A receptor", "result": 3.96, "unit": "µM"}
    ]},
    {"smiles": "CC(C)N(CCc1c[nH]c2cccc(O)c12)C(C)C", "note": "[Compound 7]", "values": [
      {"measurement": "IC50", "setting": "human 5-HT2A receptor; [4]", "result": 6.41, "unit": "µM"},
      {"measurement": "IC50", "setting": "human 5-HT1A receptor; [6]", "result": 4.69, "unit": "µM"}
    ]}
  ]
}
